Test results published in US8609635B2, “Fused tricyclic silyl compounds and methods of use thereof for the treatment of viral diseases” (priority 2010, dated 2013).
Like-named read-outs stand apart in the source and are kept apart here.

Legend:
[1] = test system: HCV replicon gt1a_H77; assay: Cell-based HCV replicon assay (TaqMan), genotype 1a (H77); details: replicon 1a (H77), replicon RNA by TaqMan, day 3
Experimental: (§1) Measurement of inhibition by compounds of the present invention was performed using the HCV replicon system. Several different replicons encoding different HCV genotypes or mutations were used. In addition, potency measurements were made using different formats of the replicon assay, including different ways of measurements and different plating formats. See Jan M. Vrolijk et al., A replicons-based bioassay for the measurement of interferons in patients with chronic hepatitis C, 110 J. VIROLOGICAL METHODS 201 (2003); Steven S. Carroll et al., Inhibition of Hepatitis C Virus RNA Replication by 2′-Modified Nucleoside Analogs, 278(14) J. BIOLOGICAL […] 11979 (2003). However, the underlying principles are common to all of these determinations, and are outlined below.
(§2) Compounds of the present invention were assayed for cell-based anti-HCV activity using the following protocol. Replicon cells were seeded at 5000 cells/well in 96-well collagen I-coated Nunc plates in the presence of the test compound. Various concentrations of test compound, typically in 10 serial 2-fold dilutions, were added to the assay mixture, with the starting concentration ranging from 250 μM to 1 μM. The final concentration of DMSO was 0.5%, fetal bovine serum was 5%, in the assay media. Cells were harvested on day 3 by the addition of 1× cell lysis buffer (Ambion cat #8721). The replicon RNA level was measured using real time PCR (TaqMan® assay). The amplicon was located in 5B. The PCR primers were: 5B.2F, […] (SEQ. ID NO. 1); 5B.2R, […] (SEQ. ID NO. 2); the probe sequence was FAM-labeled […] (SEQ. ID NO. 3). GAPDH RNA was used as endogenous control and was amplified in the same reaction as NS5B (multiplex PCR) using primers and VIC-labeled probe recommended by the manufacturer (PE Applied Biosystem). The real-time RT-PCR reactions were run on ABI PRISM 7900HT Sequence Detection System using the following program: 48° C. for 30 minutes, 95° C. for 10 minutes, 40 cycles of 95° C. for 15 sec, 60° C. for 1 minute. The ΔCT values (CT5B-CTGAPDH) were plotted against the concentration of test compound and fitted to the sigmoid dose-response model using XLfit4 (MDL). […] Alternatively, to quantitate the absolute amount of replicon RNA, a standard curve was established by including serially diluted T7 transcripts of replicon RNA in the Taqman assay. All TaqMan® reagents were from PE Applied Biosystems. Such an assay procedure was described in detail in e.g. Malcolm et al., Antimicrobial Agents and Chemotherapy 50: 1013-1020 (2006).
(§3) Wherein gt1a_H77 was prepared as described in Yi et al., J Virol. 2004, 78(15):7904-15; gt1b_con1 was prepared as described in Lohmann et al., Science 1999, 285(5424):110-3; and gt2a_JFH was prepared as described in Kato et al., Gastroenterology. 2003, 125(6):1808-17. Chimeric replicons contain NS5A from patient isolates of genotypes 1a, 1b, 2b, 3a and 4a as indicated.

[2] = test system: HCV replicon gt2a_JFH; assay: Cell-based HCV replicon assay (TaqMan), genotype 2a (JFH); details: replicon 2a (JFH), replicon RNA by TaqMan, day 3
Experimental: as §1, §2, §3

[3] = test system: HCV chimeric replicon with NS5A of genotype 4a (DQ41878); assay: Cell-based HCV replicon assay (TaqMan), chimeric replicon genotype 4a (DQ41878); details: read-out: HCV replicon EC50 4a (DQ41878)
Experimental: as §1, §2, §3

[4] = test system: HCV replicon 1a (Y93H) mutant; assay: Cell-based HCV replicon assay (TaqMan), genotype 1a mutant Y93H; details: read-out: HCV replicon EC50 1a (Y93H)
Experimental: as §1, §2, §3

[5] = test system: HCV replicon gt1b_con1; assay: Cell-based HCV replicon assay (TaqMan), genotype 1b (Con1); details: replicon 1b (Con1), replicon RNA by TaqMan, day 3
Experimental: as §1, §2, §3

[6] = test system: HCV chimeric replicon with NS5A of genotype 2b (AB03090); assay: Cell-based HCV replicon assay (TaqMan), chimeric replicon genotype 2b (AB03090); details: replicon RNA by TaqMan, day 3
Experimental: as §1, §2, §3

[7] = test system: HCV chimeric replicon with NS5A of genotype 3a (NC00982); assay: Cell-based HCV replicon assay (TaqMan), chimeric replicon genotype 3a (NC00982); details: replicon RNA by TaqMan, day 3
Experimental: as §1, §2, §3

[8] = test system: HCV replicon 1a (L31V) mutant; assay: Cell-based HCV replicon assay (TaqMan), genotype 1a mutant L31V; details: Hepatitis C virus, 72 h, read-out: HCV replicon EC50 1a (L31V)
Experimental: as §1, §2, §3

[9] = Hepatitis C virus, 72 h, read-out: HCV replicon EC50 3a (NC00982), chimeric replicon 3a (NC00982)

| SMILES | EC50 [1] [nM] | EC50 [2] [nM] | EC50 ([3]; chimeric replicon 4a (DQ41878), replicon RNA by TaqMan, day 3) [nM] | EC50 ([4]; replicon 1a mutant Y93H, replicon RNA by TaqMan, day 3) [nM] | EC50 [5] [nM] | EC50 ([6]; read-out: HCV replicon EC50 2b (AB03090), chimeric replicon 2b (AB03090)) [nM] | EC50 ([7]; read-out: HCV replicon EC50 3a (NC00982), chimeric replicon 3a (NC00982)) [nM] | EC50 ([1]; Hepatitis C virus, 72 h) [nM] | EC50 ([2]; Hepatitis C virus, 72 h) [nM] | EC50 [8] [nM] | EC50 ([3]; Hepatitis C virus, 72 h) [nM] | EC50 ([4]; Hepatitis C virus, 72 h) [nM] | EC50 ([5]; Hepatitis C virus, 72 h) [nM] | EC50 [7, 9] [nM] | EC50 ([6]; Hepatitis C virus, 72 h, read-out: HCV replicon EC50 2b (AB03090), chimeric replicon 2b (AB03090)) [nM] |
| --- | --- | --- | --- | --- | --- | --- | --- | --- | --- | --- | --- | --- | --- | --- | --- |
| COC(=O)N[C@H](C(=O)N1CC(F)(F)C[C@H]1c1ncc(-c2ccc(-c3ccc4c(ccc5nc([C@@H]6C[Si](C)(C)CN6C(=O)[C@@H](NC(=O)OC)C(C)C)[nH]c54)c3)cc2)[nH]1)C(C)C [Compound 92] | 0.015 | 0.02 | 0.02 | 46 | 0.003 | 48 | 0.35 | – | – | – | – | – | – | – | – |
| COC(=O)N[C@H](C(=O)N1C[Si](C)(C)C[C@H]1c1nc2ccc3cc(-c4ccc(-c5cnc([C@@H]6CCCN6C(=O)[C@@H](NC(=O)OC)C67CC(C(F)(F)F)(C6)C7)[nH]5)cc4)ccc3c2[nH]1)C(C)C [Compound 81] | – | – | – | – | – | – | – | 0.94 | 0.712 | > 100 | > 10 | > 1000 | 0.012 | 9.69 | – |
| COC(=O)N[C@@H](C)C(=O)N1C[Si](C)(C)C[C@H]1c1ncc(-c2ccc(-c3ccc4c(ccc5nc([C@@H]6CC(F)(F)CN6C(=O)[C@@H](NC(=O)OC)C(C)C)[nH]c54)c3)cc2)[nH]1 [Compound 106] | – | – | – | – | – | – | – | 0.016 | 0.046 | 37.1 | 0.429 | 52.6 | 0.006 | 0.435 | – |
| COC(=O)N[C@H](C(=O)N1C[Si](C)(C)C[C@H]1c1ncc(-c2ccc(-c3ccc4c(ccc5nc([C@@H]6CC(F)(F)CN6C(=O)[C@@H](NC(=O)OC)C(C)C)[nH]c54)c3)nc2)[nH]1)C(C)C [Compound 66] | – | – | – | – | – | – | – | 0.002 | 0.08 | 32 | – | 260 | 0.005 | 0.15 | > 100 |
| COC(=O)N[C@H](C(=O)N1CC[C@H](C)[C@H]1c1nc2ccc3cc(-c4ccc(-c5cnc([C@@H]6C[Si](C)(C)CN6C(=O)[C@@H](NC(=O)OC)C(C)C)[nH]5)cc4)ccc3c2[nH]1)C(C)C [Compound 95] | – | – | – | – | – | – | – | > 0.1 | 0.032 | 9 | 1.22 | 210 | 0.015 | 0.066 | – |
| CC(C)OC(=O)N[C@H](C(=O)N1CCC(F)(F)C[C@H]1c1ncc(-c2ccc(-c3ccc4c(ccc5nc([C@@H]6C[Si](C)(C)CN6C(=O)[C@@H](NC(=O)OC(C)C)C(C)C)[nH]c54)c3)cc2)[nH]1)C(C)C [Compound 88] | – | – | – | – | – | – | – | > 1 | > 10 | > 1000 | > 100 | > 1000 | 4 | > 100 | – |
| COC(=O)N[C@H](C(=O)N1C[Si](C)(C)C[C@H]1c1ncc(-c2ccc(-c3ccc4c(ccc5nc([C@H]6[C@@H]7C[C@@H]([C@@H](F)[C@H]7F)N6C(=O)[C@@H](NC(=O)OC)C(C)C)[nH]c54)c3)cc2)[nH]1)C(C)C [Compound 102] | – | – | – | – | – | – | – | 0.084 | 0.097 | 113 | 0.3 | 438 | < 2 | 7.5 | – |
| COC(=O)N[C@H](C(=O)N1C[Si](C)(C)C[C@H]1c1nc2ccc3cc(-c4ccc(-c5cnc([C@@H]6[C@@H]7C[C@@H]([C@@H](F)[C@H]7F)N6C(=O)[C@@H](NC(=O)OC)C(C)C)[nH]5)cc4)ccc3c2[nH]1)C(C)C [Compound 100] | – | – | – | – | – | – | – | 0.043 | 0.023 | 117 | < 0.2 | 204 | 0.002 | 7.4 | – |
| COC(=O)N[C@H](C(=O)N1CC(F)C[C@H]1c1ncc(-c2ccc(-c3ccc4c(ccc5nc([C@@H]6C[Si](C)(C)CN6C(=O)[C@@H](NC(=O)OC)C(C)C)[nH]c54)c3)cc2)[nH]1)C(C)C (stereo partly drawn) [Compound 55] | – | – | – | – | – | – | – | 0.07 | 0.15 | 62 | 0.35 | 27 | 0.006 | 0.8 | – |
| COC(=O)N[C@H](C(=O)N1C[Si](C)(C)C[C@H]1c1ncc(-c2ccc(-c3ccc4c(ccc5nc([C@@H]6CC(F)CN6C(=O)[C@@H](NC(=O)OC)C(C)C)[nH]c54)c3)cc2)[nH]1)C(C)C (stereo partly drawn) [Compound 53] | – | – | – | – | – | – | – | 0.016 | 0.026 | 64 | 0.1 | 10 | 0.003 | 0.09 | – |
| COC(=O)N[C@H](C(=O)N1C[Si](C)(C)C[C@H]1c1nc2ccc3cc(-c4ccc(-c5cnc([C@@H]6[C@@H]7C[C@@H]([C@@H](F)[C@H]7F)N6C(=O)[C@@H](NC(=O)OC6(C)CC6)C(C)C)[nH]5)cc4)ccc3c2[nH]1)C(C)C [Compound 101] | – | – | – | – | – | – | – | > 1 | > 10 | > 1000 | > 100 | > 1000 | 0.023 | 54.6 | – |
| COC(=O)N[C@H](C(=O)N1CC(F)(F)C[C@H]1c1nc2ccc3cc(-c4ccc(-c5cnc([C@@H]6C[Si](C)(C)CN6C(=O)[C@@H](NC(=O)OC)C6CC6)[nH]5)cc4)ccc3c2[nH]1)C(C)C [Compound 105] | – | – | – | – | – | – | – | 0.021 | 0.141 | 43 | 0.18 | 151 | 0.003 | 0.17 | – |
